According to US11207325B2, “Triazolopyrimidine compounds and uses thereof” (Novartis AG, priority 2014, dated 2021):

Tested on: H3K27 methylation in G401 cell
Assay: ELISA (H3K27 methylation) assay
Assay type: cell-based
Conditions: Homo sapiens, G-401; ELISA Qualified assay (H3K27 methylation); read-out: (c) IC50 (μM), ELISA Qualified
Text: ELISA (H3K27 Methylation) Assay

## CC1(C)COC(c2cncc(-c3cnc(NCc4cccc5c4CCO5)n4cnnc34)c2)=N1 [Example 90, N-((2,3-dihydrobenzofuran-4-yl)methyl)-8-(5-(4,4-dimethyl-4,5-dihydrooxazol-2-yl)pyridin-3-yl)-[1,2,4]triazolo[4,3-c]pyrimidin-5-amine]
  IC50: 0.675 µM

## Fc1ccc2c(c1CNc1ncc(-c3ccc(N4CCSCC4)nc3)c3nncn13)CCO2 [Example 91, N-((5-fluoro-2,3-dihydrobenzofuran-4-yl)methyl)-8-(6-thiomorpholinopyridin-3-yl)-[1,2,4]triazolo[4,3-c]pyrimidin-5-amine]
  IC50: 0.0225 µM

## Fc1ccc2c(c1CNc1ncc(-c3ccc(N4CCOCC4)nc3)c3nncn13)CCO2 [Example 92, N-((5-fluoro-2,3-dihydrobenzofuran-4-yl)methyl)-8-(6-morpholinopyridin-3-yl)-[1,2,4]triazolo[4,3-c]pyrimidin-5-amine]
  IC50: 0.0409 µM

## N#Cc1ccc(-c2cnc(NCc3c(F)ccc4c3CCO4)n3cnnc23)cn1 [Example 93, 5-(5-(((5-fluoro-2,3-dihydrobenzofuran-4-yl)methyl)amino)-[1,2,4]triazolo[4,3-c]pyrimidin-8-yl)picolinonitrile]
  IC50: 0.0241 µM

## Fc1ccccc1-c1cnc(NCc2c(F)ccc3c2CCO3)n2cnnc12 [Example 94, N-((5-fluoro-2,3-dihydrobenzofuran-4-yl)methyl)-8-(2-fluorophenyl)-[1,2,4]triazolo[4,3-c]pyrimidin-5-amine]
  IC50: 0.0257 µM

## CN(C)C(=O)c1ccc(-c2cnc(NCc3cccc4c3CCO4)n3cnnc23)cn1 [Example 95, 5-(5-(((2,3-dihydrobenzofuran-4-yl)methyl)amino)-[1,2,4]triazolo[4,3-c]pyrimidin-8-yl)-N,N-dimethylpicolinamide]
  IC50: 0.158 µM

## CC1CCCN1c1ccc(-c2cnc(NCc3cccc4c3CCO4)n3cnnc23)cn1 (stereo not shown) [Example 96, N-((2,3-dihydrobenzofuran-4-yl)methyl)-8-(6-(2-methylpyrrolidin-1-yl)pyridin-3-yl)-[1,2,4]triazolo[4,3-c]pyrimidin-5-amine]
  IC50: 0.329 µM

## COC(=O)N1CCN(c2ccc(-c3cnc(NCc4cccc5c4CCO5)n4cnnc34)cn2)CC1 [Example 97, methyl 4-(5-(5-(((2,3-dihydrobenzofuran-4-yl)methyl)amino)-[1,2,4]triazolo[4,3-c]pyrimidin-8-yl)pyridin-2-yl)piperazine-1-carboxylate]
  IC50: 0.183 µM

## CS(=O)(=O)CCCOc1cncc(-c2cnc(NCc3cccc4c3CCO4)n3cnnc23)c1 [Example 98, N-((2,3-dihydrobenzofuran-4-yl)methyl)-8-(5-(3-(methylsulfonyl)propoxy)pyridin-3-yl)-[1,2,4]triazolo[4,3-c]pyrimidin-5-amine]
  IC50: 1.42 µM

## CC(C)(O)c1ccc(-c2cnc(NCc3cccc4c3CCO4)n3cnnc23)cn1 [Example 99, 2-(5-(5-(((2,3-dihydrobenzofuran-4-yl)methyl)amino)-[1,2,4]triazolo[4,3-c]pyrimidin-8-yl)pyridin-2-yl)propan-2-ol]
  IC50: 0.107 µM

## FC1(F)CCN(CCc2ccc(-c3cnc(NCc4cccc5c4CCO5)n4cnnc34)cn2)C1 [Example 100, 8-(6-(2-(3,3-difluoropyrrolidin-1-yl)ethyl)pyridin-3-yl)-N-((2,3-dihydrobenzofuran-4-yl)methyl)-[1,2,4]triazolo[4,3-c]pyrimidin-5-amine]
  IC50: 0.181 µM

## CC1(C)COC(c2ccc(-c3cnc(NCc4cccc5c4CCO5)n4cnnc34)cn2)=N1 [Example 101, N-((2,3-dihydrobenzofuran-4-yl)methyl)-8-(6-(4,4-dimethyl-4,5-dihydrooxazol-2-yl)pyridin-3-yl)-[1,2,4]triazolo[4,3-c]pyrimidin-5-amine]
  IC50: 0.761 µM

## CN(C)CCN(C)C(=O)c1ccc(-c2cnc(NCc3cccc4c3CCO4)n3cnnc23)cn1 [Example 102, 5-(5-(((2,3-dihydrobenzofuran-4-yl)methyl)amino)-[1,2,4]triazolo[4,3-c]pyrimidin-8-yl)-N-(2-(dimethylamino)ethyl)-N-methylpicolinamide]
  IC50: 0.285 µM

## O=C1CN(c2ccc(-c3cnc(NCc4cccc5c4CCO5)n4cnnc34)cn2)CCN1 [Example 104, 4-(5-(5-(((2,3-dihydrobenzofuran-4-yl)methyl)amino)-[1,2,4]triazolo[4,3-c]pyrimidin-8-yl)pyridin-2-yl)piperazin-2-one]
  IC50: 2.33 µM

## Cc1cc(-c2cnc(NCc3cccc4c3CCO4)n3cnnc23)cnc1N1CCNC(=O)C1 [Example 105, 4-(5-(5-(((2,3-dihydrobenzofuran-4-yl)methyl)amino)-[1,2,4]triazolo[4,3-c]pyrimidin-8-yl)-3-methylpyridin-2-yl)piperazin-2-one]
  IC50: 2.42 µM

## CS(=O)(=O)CCOc1cncc(-c2cnc(NCc3cccc4c3CCO4)n3cnnc23)c1 [Example 106, N-((2,3-dihydrobenzofuran-4-yl)methyl)-8-(5-(2-(methylsulfonyl)ethoxy)pyridin-3-yl)-[1,2,4]triazolo[4,3-c]pyrimidin-5-amine]
  IC50: 2.7 µM

## O=CN1CCN(CCc2ccc(-c3cnc(NCc4cccc5c4CCO5)n4cnnc34)cn2)CC1 [Example 107, 4-(2-(5-(5-(((2,3-dihydrobenzofuran-4-yl)methyl)amino)-[1,2,4]triazolo[4,3-c]pyrimidin-8-yl)pyridin-2-yl)ethyl)piperazine-1-carbaldehyde]
  IC50: 0.161 µM

## CC(=O)N1CCN(CCc2ccc(-c3cnc(NCc4cccc5c4CCO5)n4cnnc34)cn2)CC1 [Example 108, 1-(4-(2-(5-(5-(((2,3-dihydrobenzofuran-4-yl)methyl)amino)-[1,2,4]triazolo[4,3-c]pyrimidin-8-yl)pyridin-2-yl)ethyl)piperazin-1-yl)ethanone]
  IC50: 0.173 µM

## O=C1CN(CCc2ccc(-c3cnc(NCc4cccc5c4CCO5)n4cnnc34)cn2)CCN1 [Example 109, 4-(2-(5-(5-(((2,3-dihydrobenzofuran-4-yl)methyl)amino)-[1,2,4]triazolo[4,3-c]pyrimidin-8-yl)pyridin-2-yl)ethyl)piperazin-2-one]
  IC50: 1.21 µM

## OCCN1CCN(c2ccc(-c3cnc(NCc4cccc5c4CCO5)n4cnnc34)cn2)CC1 [Example 110, 2-(4-(5-(5-(((2,3-dihydrobenzofuran-4-yl)methyl)amino)-[1,2,4]triazolo[4,3-c]pyrimidin-8-yl)pyridin-2-yl)piperazin-1-yl)ethanol]
  IC50: 0.124 µM

## CNc1cc(F)c(-c2cnc(NCc3cccc4c3CCO4)n3cnnc23)cn1 [Example 111, N-((2,3-dihydrobenzofuran-4-yl)methyl)-8-(4-fluoro-6-(methylamino)pyridin-3-yl)-[1,2,4]triazolo[4,3-c]pyrimidin-5-amine]
  IC50: 0.14 µM

## CN(C)c1cc(F)c(-c2cnc(NCc3cccc4c3CCO4)n3cnnc23)cn1 [Example 112, N-((2,3-dihydrobenzofuran-4-yl)methyl)-8-(6-(dimethylamino)-4-fluoropyridin-3-yl)-[1,2,4]triazolo[4,3-c]pyrimidin-5-amine]
  IC50: 0.389 µM

## O=CN1CCCN(c2ccc(-c3cnc(NCc4cccc5c4CCO5)n4cnnc34)cn2)CC1 [Example 113, 4-(5-(5-(((2,3-dihydrobenzofuran-4-yl)methyl)amino)-[1,2,4]triazolo[4,3-c]pyrimidin-8-yl)pyridin-2-yl)-1,4-diazepane-1-carbaldehyde]
  IC50: 0.72 µM

## CCNC(=O)c1ccc(-c2cnc(NCc3cccc4c3CCO4)n3cnnc23)cn1 [Example 114, 5-(5-(((2,3-dihydrobenzofuran-4-yl)methyl)amino)-[1,2,4]triazolo[4,3-c]pyrimidin-8-yl)-N-ethylpicolinamide]
  IC50: 1.98 µM

## Fc1ccc2c(c1CNc1ncc(-c3cccnc3F)c3nncn13)CCO2 [Example 115, N-((5-fluoro-2,3-dihydrobenzofuran-4-yl)methyl)-8-(2-fluoropyridin-3-yl)-[1,2,4]triazolo[4,3-c]pyrimidin-5-amine]
  IC50: 0.0243 µM

## Cc1cc(-c2cnc(NCc3c(F)ccc4c3CCO4)n3cnnc23)ccn1 [Example 116, N-((5-fluoro-2,3-dihydrobenzofuran-4-yl)methyl)-8-(2-methylpyridin-4-yl)-[1,2,4]triazolo[4,3-c]pyrimidin-5-amine]
  IC50: 0.0072 µM

## O=C1OCCN1c1ccc(-c2cnc(NCc3cccc4c3CCO4)n3cnnc23)cn1 [Example 117, 3-(5-(5-(((2,3-dihydrobenzofuran-4-yl)methyl)amino)-[1,2,4]triazolo[4,3-c]pyrimidin-8-yl)pyridin-2-yl)oxazolidin-2-one]
  IC50: 0.48 µM

## Cc1ccncc1-c1cnc(NCc2c(F)ccc3c2CCO3)n2cnnc12 [Example 118, N-((5-fluoro-2,3-dihydrobenzofuran-4-yl)methyl)-8-(4-methylpyridin-3-yl)-[1,2,4]triazolo[4,3-c]pyrimidin-5-amine]
  IC50: 0.0177 µM

## Fc1ccc2c(c1CNc1ncc(-c3ccc(C4CC4)nc3)c3nncn13)CCO2 [Example 119, 8-(6-cyclopropylpyridin-3-yl)-N-((5-fluoro-2,3-dihydrobenzofuran-4-yl)methyl)-[1,2,4]triazolo[4,3-c]pyrimidin-5-amine]
  IC50: 0.0108 µM

## Fc1ccc2c(c1CNc1ncc(-c3ccnc(N4CCOCC4)c3)c3nncn13)CCO2 [Example 120, N-((5-fluoro-2,3-dihydrobenzofuran-4-yl)methyl)-8-(2-morpholinopyridin-4-yl)-[1,2,4]triazolo[4,3-c]pyrimidin-5-amine]
  IC50: 0.0721 µM

## N#Cc1ccccc1-c1cnc(NCc2c(F)ccc3c2CCO3)n2cnnc12 [Example 121, 2-(5-(((5-fluoro-2,3-dihydrobenzofuran-4-yl)methyl)amino)-[1,2,4]triazolo[4,3-c]pyrimidin-8-yl)-benzonitrile]
  IC50: 0.0142 µM

## NC(=O)c1ccccc1-c1cnc(NCc2c(F)ccc3c2CCO3)n2cnnc12 [Example 122, 2-(5-(((5-fluoro-2,3-dihydrobenzofuran-4-yl)methyl)amino)-[1,2,4]triazolo[4,3-c]pyrimidin-8-yl)benzamide]
  IC50: 0.135 µM

## Cc1ncccc1-c1cnc(NCc2cccc3c2CCO3)n2cnnc12 [Example 123, N-((2,3-dihydrobenzofuran-4-yl)methyl)-8-(2-methylpyridin-3-yl)-[1,2,4]triazolo[4,3-c]pyrimidin-5-amine]
  IC50: 0.0197 µM

## Fc1ccc2c(c1CNc1ncc(-c3cnccc3Cl)c3nncn13)CCO2 [Example 124]
  IC50: 0.006 µM
